According to US20150119435A1, “COMPOUNDS USEFUL FOR PROMOTING PROTEIN DEGRADATION AND METHODS USING SAME” (YALE UNIVERSITY, priority 2012, published 2015):

Columns and labels:
androgen receptor (AR) = target: T1, androgen receptor (AR) (Homo sapiens, UniProt P10275); experiment: SARD mediated AR degradation (western blot); conditions: for AR degradation (in words): at the concentrations assayed
T1 sequence (P10275 1-920): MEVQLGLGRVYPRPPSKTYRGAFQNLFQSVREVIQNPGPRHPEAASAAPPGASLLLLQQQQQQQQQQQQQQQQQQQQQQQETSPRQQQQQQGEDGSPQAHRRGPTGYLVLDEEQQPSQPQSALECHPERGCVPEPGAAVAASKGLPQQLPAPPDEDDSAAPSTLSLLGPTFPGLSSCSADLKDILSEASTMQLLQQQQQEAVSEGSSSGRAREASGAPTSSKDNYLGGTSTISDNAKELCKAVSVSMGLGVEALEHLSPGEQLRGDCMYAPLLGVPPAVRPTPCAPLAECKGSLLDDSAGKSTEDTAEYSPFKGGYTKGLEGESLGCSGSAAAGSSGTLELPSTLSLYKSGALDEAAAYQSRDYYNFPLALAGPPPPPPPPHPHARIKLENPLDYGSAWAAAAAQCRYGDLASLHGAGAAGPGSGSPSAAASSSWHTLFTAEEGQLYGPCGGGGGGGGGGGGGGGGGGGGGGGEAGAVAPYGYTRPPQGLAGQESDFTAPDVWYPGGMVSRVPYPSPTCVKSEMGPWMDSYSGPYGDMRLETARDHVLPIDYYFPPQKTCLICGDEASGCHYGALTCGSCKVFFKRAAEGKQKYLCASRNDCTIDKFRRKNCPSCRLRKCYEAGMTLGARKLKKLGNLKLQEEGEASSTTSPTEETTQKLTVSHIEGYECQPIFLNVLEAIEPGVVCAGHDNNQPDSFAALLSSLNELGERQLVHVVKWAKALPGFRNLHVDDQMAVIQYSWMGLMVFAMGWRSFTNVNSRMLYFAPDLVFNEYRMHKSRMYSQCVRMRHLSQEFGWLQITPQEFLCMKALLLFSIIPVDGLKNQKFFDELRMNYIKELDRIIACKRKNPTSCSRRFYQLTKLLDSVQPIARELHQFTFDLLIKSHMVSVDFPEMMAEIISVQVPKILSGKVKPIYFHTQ

[1] = tested on: AR-independent HELA cells; experiment: General cell toxicity in AR-independent HELA cells; format: cell-based; conditions: 1 μM, 48 h
Experimental: (§1) FIG. 26, comprising FIGS. 26A-26C, is a series of graphs illustrating in vitro activity of SARDS compounds. FIG. 26A: effect of SARDS on cell proliferation of LnCAPs. FIG. 26B: effect of SARDS on the proliferation of non-AR dependent cell lines. FIG. 26C: effect of SARDS on androgen independent prostate cancer cells.
(§2) To access general cell toxicity, AR-independent HEK293 and HELA cells were treated with 1 μM SARD 279.

[2] = tested on: AR-independent HEK293 cells; experiment: General cell toxicity in AR-independent HEK293 cells; format: cell-based; conditions: HEK293, 1 μM, 48 h
Experimental: as §1, §2

[3] = tested on: androgen dependent LnCAP cells; experiment: Proliferation of androgen dependent LnCAP prostate cancer cells; format: cell-based; conditions: 1 μM, several days
Description: as §1

With CCOCCOCCNC(=O)CCCN1C(=S)N(c2ccc(C#N)c(C(F)(F)F)c2)C(=O)C1(C)C [SARD 280, 4-(3-(4-Cyano-3-(trifluoromethyl)phenyl)-5,5-dimethyl-4-oxo-2-thioxoimidazolidin-1-yl)-N-(2-(2-ethoxyethoxyl)ethyl)butanamide] as the molecule, how does the “AR degradation (in words)” value (androgen receptor (AR)) read?
The value was “affected degradation only at higher concentrations and did not achieve complete AR degradation at the concentrations assayed”.

How did the “AR degradation (in words)” value (androgen receptor (AR)) turn out when CC1(C)C(=O)N(c2ccc(C#N)c(C(F)(F)F)c2)C(=S)N1CCCCO [RU 59063, 4-[3-(4-hydroxybutyl)-4,4-dimethyl-5-oxo-2-thioxoimidazolidin-1-yl]-2-(trifluoromethyl)benzonitrile, reference compound] was run?
The value was “no degradation was detected”.

How did the “Cytotoxicity compared to vehicle” value [1] turn out when CC1(C)C(=O)N(c2ccc(C#N)c(C(F)(F)F)c2)C(=S)N1CCCC(=O)NCCOCCOC(=O)CC12CC3CC(CC(C3)C1)C2 [SARD 279, 2-(2-(4-(3-(4-Cyano-3-(trifluoromethyl)phenyl)-5,5-dimethyl-4-oxo-2-thioxoimidazolidin-1-yl)butanamido)ethoxy)ethyl 2-(adamantan-1-yl)acetate] was run?
The value was “did not display cytotoxic results”.

What about the DC50 (androgen receptor (AR); read-out: DC50 (half maximum degradation concentration) of AR, AR degradation, western blot) of the same molecule?
The DC50 was 1 µM.

What about the “Cytotoxicity compared to vehicle” value [2] of the same molecule?
The value was “did not display cytotoxic results”.

How did the “Cell growth / proliferation of LnCAP cells” value [3] turn out when CC1(C)C(=O)N(c2ccc(C#N)c(C(F)(F)F)c2)C(=S)N1CCCC(=O)NCCOCCOCCOCCOC12CC3CC(CC(C3)C1)C2 [SARD 033, N-(2-(2-(2-(2-(Adamantan-1-yloxy)ethoxy)ethoxy)ethoxy)ethyl)-4-(3-(4-cyano-3-(trifluoromethyl)phenyl)-5,5-dimethyl-4-oxo-2-thioxoimidazolidin-1-yl)butanamide] was run?
Its value is “significantly attenuated cell growth”.
